Structures are written as SMILES. Some results are limits rather than exact numbers.

As usually defined, the IC50 is the point on the concentration scale where inhibition reaches its midpoint.

One test has as its system human primary T-cells, IL-2 stimulated proliferation (JAK-1 and JAK-3 dependent; reported as JAK3 activity). In words: Human primary T-cell proliferation stimulated by IL-2 (Example 3). Type of test: cell-based. Conditions: Homo sapiens, T-cell, tested under conditions described in Example 3 (IL-2 stimulated human primary T-cell proliferation); read-out: ability to inhibit JAK3 activity, IC50 range (Table V). In short, it runs like this: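 Peripheral-blood human T-cells pre-activated via TCR/CD28, IL-2-starved overnight, then cultured 72 h at 37 °C with compound in Yssel's medium containing IL-2 (80 U/mL in cell suspension). Proliferation read as viable-cell ATP by CellTiter-Glo luminescence; reduction versus control taken as JAK pathway inhibition.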
Regarding `COC(=O)N1C2CCC1CC(c1ncc(Nc3ncc(C)c(Nc4ccc5oc(=O)[nH]c5c4)n3)cc1C)C2` (stereo not drawn) [II-68, methyl 3-(3-methyl-5-(5-methyl-4-(2-oxo-2,3-dihydrobenzo[d]oxazol-5-ylamino)pyrimidin-2-ylamino)pyridin-2-yl)-8-azabicyclo[3.2.1]octane-8-carboxylate], the IC50 is < 500 nM.
In the case of `Cc1cnc(Nc2ccc(N3CCC(NC(=O)C4CC4)C3)nc2)nc1Nc1ccc2oc(=O)[nH]c2c1` (stereo not drawn) [II-101, N-(1-(5-(5-methyl-4-(2-oxo-2,3-dihydrobenzo[d]oxazol-5-ylamino)pyrimidin-2-ylamino)pyridin-2-yl)pyrrolidin-3-yl)cyclopropanecarboxamide], the IC50 is < 500 nM.
On to `Cc1cnc(Nc2ccc3c(c2)CCCC(=O)N3C)nc1Nc1ccc2oc(=O)[nH]c2c1` [IV-34, 5-(5-methyl-2-(1-methyl-2-oxo-2,3,4,5-tetrahydro-1H-benzo[b]azepin-7-ylamino)pyrimidin-4-ylamino)benzo[d]oxazol-2(3H)-one], for which the IC50 was < 500 nM.
With `Cc1cnc(Nc2ccc(C(N)=O)cc2)nc1Nc1ccc2oc(=O)n(COP(=O)(OC(C)(C)C)OC(C)(C)C)c2c1` [Compound I-146, di-tert-butyl (5-(2-(4-carbamoylphenylamino)-5-methylpyrimidin-4-ylamino)-2-oxobenzo[d]oxazol-3(2H)-yl)methyl phosphate], the IC50 was in the range of 500 to 5000 nM.
Still for that read-out and setting: the same measure for `Cc1cnc(Nc2ccc(C(N)=O)c(N3CCC(C)CC3)c2)nc1Nc1ccc2oc(=O)[nH]c2c1` [Compound I-156, 4-[5-Methyl-4-(2-oxo-2,3-dihydro-benzooxazol-5-ylamino)-pyrimidin-2-ylamino]-2-(4-methyl-piperidin-1-yl)-benzamide]: < 500 nM.
Consider `Cc1cccc(Nc2ncc(C)c(Nc3ccc4oc(=O)[nH]c4c3)n2)n1` [IV-51, 5-(5-methyl-2-(6-methylpyridin-2-ylamino)pyrimidin-4-ylamino)benzo[d]oxazol-2(3H)-one], for which the IC50 was in the range of 500 to 5000 nM.
For the compound `Cc1cnc(Nc2ccc3onc(C)c3c2)nc1Nc1ccc2oc(=O)[nH]c2c1` [IV-9, N4-(benzo[d]oxazol-2(3H)-on-5-yl)-N2-(3-methyl-1,2-benzisoxazol-5-yl)-5-methylpyrimidine-2,4-diamine], the IC50 was < 500 nM.
On the same count and under the same terms, the same measure for `Cc1cnc(Nc2cc(OC3CCC3)cc(C(F)(F)F)c2)nc1Nc1ccc2oc(=O)[nH]c2c1` [Compound I-226, 5-(2-(3-cyclobutoxy-5-(trifluoromethyl)phenylamino)-5-methylpyrimidin-4-ylamino)benzo[d]oxazol-2(3H)-one]: 500 to 5000 nM; for `Cc1cnc(Nc2ccc(O)c(Cl)c2)nc1Nc1ccc2oc(=O)[nH]c2c1` [Compound I-424, 5-[2-(3-Chloro-4-hydroxy-phenylamino)-5-methyl-pyrimidin-4-ylamino]-3H-benzooxazol-2-one]: < 500 nM; for `CN1CCN(c2ccc(Nc3ncc(F)c(Nc4ccc5oc(=O)[nH]c5c4)n3)cn2)CC1` [II-14, N4-(benzo[d]oxazol-2(3H)-on-5-yl)-N2-[2-(4-methylpiperazin-1-yl)pyridin-5-yl]-5-fluoropyrimidine-2,4-diamine]: < 500 nM.
For the compound `Cc1cc(Nc2ncc(C)c(Nc3ccc4oc(=O)[nH]c4c3)n2)cc(C(F)F)c1` [Compound I-237, 5-(2-(3-(difluoromethyl)-5-methylphenylamino)-5-methylpyrimidin-4-ylamino)benzo[d]oxazol-2(3H)-one], the IC50 is < 500 nM.
Same read-out and setting: the same measure for `Cc1cnc(Nc2cc(C(F)(F)F)cc(C(F)(F)F)c2)nc1Nc1ccc2oc(=O)[nH]c2c1` [Compound I-169, 5-[2-(3,5-Bis-trifluoromethyl-phenylamino)-5-methyl-pyrimidin-4-ylamino]-3H-benzooxazol-2-one]: < 500 nM; for `Cc1cnc(Nc2ccc(N3CCN(C)CC3)nc2)nc1Nc1ccc2oc(=O)n(C(C)C)c2c1` [II-7, N2-(6-(4-methylpiperazin-1-yl)pyridin-3-yl)-N4-(3-isopropylbenzo[d]oxazol-2(3H)-on-5-yl)-5-methylpyrimidine-2,4-diamine]: < 500 nM; for `Cc1cnc(Nc2ccc(N(C)[C@@H]3CCCN(Cc4ccccc4)C3)nc2)nc1Nc1ccc2oc(=O)[nH]c2c1` [II-106, (R)-5-(2-(6-((1-benzylpiperidin-3-yl)(methyl)amino)pyridin-3-ylamino)-5-methylpyrimidin-4-ylamino)benzo[d]oxazol-2(3H)-one]: < 500 nM.
With `Cc1cnc(Nc2ccc3cnn(C)c3c2)nc1Nc1ccc2oc(=O)[nH]c2c1` [IV-41, 5-methyl-N2-(1-methylindazol-6-yl)-N4-(2-oxo-2,3-dihydro-1,3-benzoxazol-5-yl)-2,4-pyrimidinediamine], the IC50 was < 500 nM.
Turning to `Cc1cnc(Nc2ccc3c(c2)CCC(=O)N3)nc1Nc1ccc2oc(=O)[nH]c2c1` [IV-33, 5-(5-methyl-2-(2-oxo-1,2,3,4-tetrahydroquinolin-6-ylamino)pyrimidin-4-ylamino)benzo[d]oxazol-2(3H)-one], the IC50 is < 500 nM.
`Cc1cnc(Nc2ccc(N[C@@H]3CCCNC3)nc2)nc1Nc1ccc2oc(=O)[nH]c2c1` [II-107, (R)-5-(5-methyl-2-(6-(piperidin-3-ylamino)pyridin-3-ylamino)pyrimidin-4-ylamino)benzo[d]oxazol-2(3H)-one]: the IC50 is < 500 nM.
Take `COc1cc(Nc2ncc(C)c(Nc3ccc4oc(=O)[nH]c4c3)n2)cc(OC)c1C` [Compound I-529, 5-(2-(3,5-dimethoxy-4-methylphenylamino)-5-methylpyrimidin-4-ylamino)benzo[d]oxazol-2(3H)-one]: the IC50 is < 500 nM.

Still in this test, the particulars now being: tested under conditions described in Example 3 (IL-2 stimulated human primary T-cell proliferation); read-out: ability to inhibit JAK3 activity, IC50 range (Table V).
For the compound `Cc1cnc(Nc2cc(C)c(Cl)c(C)c2)nc1Nc1ccc2oc(=O)[nH]c2c1` [Compound I-394, N2-(4-chloro-3,5-dimethyl)phenyl-5-methyl-N4-(2-oxo-2,3-dihydro-1,3-benzoxazol-5-yl)-2,4-pyrimidinediamine], the IC50 is < 500 nM.
Regarding `CS(=O)(=O)Nc1cc(Nc2ncc(F)c(Nc3ccc4oc(=O)[nH]c4c3)n2)ccc1F` [Compound I-90, N2-((4-fluoro-3-methylsulfonylamino)phenyl)-N4-(2-oxo-2,3-dihydrobenzo[d]oxazol-5-yl)-5-fluoropyrimidine-2,4-diamine], the IC50 was < 500 nM.
On to `Cc1cnc(Nc2ccc(F)c(OC(F)F)c2)nc1Nc1ccc2oc(=O)[nH]c2c1` [Compound I-435, N2-(3-difluoromethoxy-4-fluoro)phenyl-5-methyl-N4-(2-oxo-2,3-dihydro-1,3-benzoxazol-5-yl)-2,4-pyrimidinediamine], for which the IC50 is < 500 nM.
Still for that read-out and setting: the same measure for `Cc1cnc(Nc2cccc(N3CCOCC3)c2)nc1Nc1ccc2[nH]c(=O)oc2c1` [Compound I-48, N4-(benzo[d]oxazol-2(3H)-on-6-yl)-N2-((3-morpholinyl)phenyl)-5-methylpyrimidine-2,4-diamine]: < 500 nM; for `Cc1ccc(Nc2ncc(C)c(Nc3ccc4[nH]c(=O)oc4c3)n2)cc1NS(C)(=O)=O` [Compound I-104, N2-((3-methylsulfonylamino-4-methyl)phenyl)-N4-(2-oxo-2,3-dihydrobenzo[d]oxazol-6-yl)-5-methylpyrimidine-2,4-diamine]: < 500 nM; for `Cc1cnc(Nc2cc(Cl)c(OC(F)F)c(Cl)c2)nc1Nc1ccc2oc(=O)[nH]c2c1` [Compound I-348, N2-(3,5-dichloro-4-difluoromethoxy)phenyl-5-methyl-N4-(2-oxo-2,3-dihydro-1,3-benzoxazol-5-yl)-2,4-pyrimidinediamine]: < 500 nM.
